Patent publication US11753446B2, “Beta-hairpin peptidomimetics” (POLYPHOR AG, priority 2014, dated 2023)
Where a SMILES comes first, the peptide text is derived from it. Bridges are numbered along the chain shown (N, C = ends). Triazole bridges read from a SMILES are 1,4-linked. [ ]: non-standard residue; d: D form. Aha = [N-]=[N+]=NCC[C@H](N)C(=O)O; dPen = CC(C)(S)[C@@H](N)C(=O)O; Chg = N[C@H](C(=O)O)C1CCCCC1; Tle = CC(C)(C)[C@H](N)C(=O)O; dDab = NCC[C@@H](N)C(=O)O; Orn = NCCC[C@H](N)C(=O)O; Pra = C#CC[C@H](N)C(=O)O; Dab = NCC[C@H](N)C(=O)O; Dap = NC[C@H](N)C(=O)O

Key:
[1] = system: Acinetobacter baumannii DSM 30008; type: cell-based; details: DSM 30008
Method in brief: (§1)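 Peptide activity was tested by NCCLS broth microdilution with slight modifications. Bacteria were diluted in cation-adjusted Mueller-Hinton II broth to approximately 10^6 CFU/mL against a 0.5 McFarland standard. They were then exposed to two-fold serial peptide dilutions in broth containing 0.002% final polysorbate 80.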

[2] = system: Escherichia coli ATCC 25922; type: cell-based; details: ATCC 25922
Method in brief: as §1

[3] = system: Klebsiella pneumoniae ATCC 13883; type: cell-based; details: ATCC 13883
Method in brief: as §1

[4] = system: human red blood cells (hRBC); assay: Hemolysis: hemolytic activity at 100 μg/mL, 1 h at 37° C.; details: red cells of human, 1 h, 100
Method in brief: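 Peptides at 100 μg/mL incubated with washed 20% (v/v) human erythrocytes (~0.9×10^9 cells/mL) for 1 h at 37 °C with shaking. Released hemoglobin read at OD 540 nm in supernatant; 0% and 100% lysis from PBS/0.001% acetic acid and 2.5% Triton X-100.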

Structure (SMILES)	Acinetobacter baumannii DSM 30008 MIC [1] [µg/mL]	Escherichia coli ATCC 25922 MIC [2] [µg/mL]	Klebsiella pneumoniae ATCC 13883 MIC [3] [µg/mL]	Hemolysis at 100 μg/mL [4] [%]
CC(C)C[C@@H]1NC(=O)[C@H](CCCNC(=N)N)NC(=O)[C@@H](CCN)NC(=O)[C@H](C(C)C)NC(=O)[C@@H]2CSSC[C@H](NC1=O)C(=O)N[C@@H](C(C)C)C(=O)N[C@@H]([C@@H](C)O)C(=O)N[C@@H](CCCN)C(=O)N[C@H](CCN)C(=O)N[C@@H](CCN)C(=O)N[C@@H](Cc1c[nH]c3ccccc13)C(=O)N[C@@H]([C@@H](C)O)C(=O)N[C@@H](Cc1ccc(O)cc1)C(=O)N2 [Example 25, cyclo(-Leu-Cys-Val-Thr-Orn-^DDab-Dab-Trp-Thr-Tyr-Cys-Val-^DDab-Arg-)] (HELM PEPTIDE1{C.V.T.[Orn].[NCC[C@@H](N[*:1])C(=O)[*:2]].[Dab].W.T.Y.C.V.[NCC[C@@H](N[*:1])C(=O)[*:2]].R.L}$PEPTIDE1,PEPTIDE1,1:R3-10:R3|PEPTIDE1,PEPTIDE1,1:R1-14:R2$$$V2.0)	0.25	1	1	3
CC(C)C[C@@H]1NC(=O)[C@@H]2CCCN2C(=O)[C@@H](C)NC(=O)[C@H](CO)NC(=O)[C@@H]2CC(=O)NCC[C@H](NC1=O)C(=O)N[C@@H](Cc1ccc(O)cc1)C(=O)N[C@@H](CCN)C(=O)N[C@@H](CCN)C(=O)N[C@@H](CCN)C(=O)N[C@@H](CCN)C(=O)N[C@@H](Cc1c[nH]c3ccccc13)C(=O)N[C@@H](CCN)C(=O)N[C@@H](C(C)(C)C)C(=O)N2 [Example 26, cyclo(-Leu-Dab-Tyr-Dab-Dab-Dab-Dab-Trp-Dab-tBuGly-Asp-Ser-^DAla-Pro-)] (HELM PEPTIDE1{D.S.[dA].P.L.[Dab].Y.[Dab].[Dab].[Dab].[Dab].W.[Dab].[CC(C)(C)[C@H](N[*:1])C(=O)[*:2]]}$PEPTIDE1,PEPTIDE1,1:R3-6:R3|PEPTIDE1,PEPTIDE1,1:R1-14:R2$$$V2.0)	2	2	1	1
CC(C)[C@@H]1NC(=O)[C@@H]2CCCN2C(=O)[C@@H](C)NC(=O)[C@H](CO)NC(=O)[C@@H]2CC(=O)NCC[C@H](NC1=O)C(=O)N[C@@H](Cc1ccc(O)cc1)C(=O)N[C@@H](CCN)C(=O)N[C@@H](CN)C(=O)N[C@H](CCN)C(=O)N[C@@H](CCN)C(=O)N[C@@H](Cc1c[nH]c3ccccc13)C(=O)N[C@@H](CCN)C(=O)N[C@@H](C(C)(C)C)C(=O)N2 [Example 27, cyclo(-Val-Dab-Tyr-Dab-Dap-^DDab-Dab-Trp-Dab-tBuGly-Asp-Ser-^DAla-Pro-)] (cyclo(DS[dA]PV[Dab]Y[Dab][Dap][dDab][Dab]W[Dab][Tle]); lactam 1-6)	1	0.5	0.5	2
CC(C)[C@@H]1NC(=O)[C@@H]2CCCN2C(=O)[C@@H]([C@H](C)O)NC(=O)[C@H]([C@@H](C)O)NC(=O)[C@@H]2CC(=O)NCC[C@H](NC1=O)C(=O)N[C@@H](Cc1ccc(O)cc1)C(=O)N[C@@H](CCN)C(=O)N[C@@H](CN)C(=O)N[C@H](CCN)C(=O)N[C@@H](CCN)C(=O)N[C@@H](Cc1c[nH]c3ccccc13)C(=O)N[C@@H](CCN)C(=O)N[C@@H](C(C)(C)C)C(=O)N2 [Example 29, cyclo(-Val-Dab-Tyr-Dab-Dap-^DDab-Dab-Trp-Dab-tBuGly-Asp-Thr-^DThr-Pro-)] (cyclo(V[Dab]Y[Dab][Dap][dDab][Dab]W[Dab][Tle]DT[dT]P); lactam 2-11)	1	0.5	0.5	2
CC(C)[C@@H]1NC(=O)[C@H](C)NC(=O)[C@@H](C)NC(=O)[C@H](CO)NC(=O)[C@@H]2CC(=O)NCC[C@H](NC1=O)C(=O)N[C@@H](Cc1ccc(O)cc1)C(=O)N[C@@H](CCN)C(=O)N[C@@H](CCN)C(=O)N[C@H](CCN)C(=O)N[C@@H](CCN)C(=O)N[C@@H](Cc1c[nH]c3ccccc13)C(=O)N[C@@H](CCN)C(=O)N[C@@H](C(C)(C)C)C(=O)N2 [Example 30, cyclo(-Val-Dab-Tyr-Dab-Dab-^DDab-Dab-Trp-Dab-tBuGly-Asp-Ser-^DAla-Ala-)] (HELM PEPTIDE1{A.V.[Dab].Y.[Dab].[Dab].[NCC[C@@H](N[*:1])C(=O)[*:2]].[Dab].W.[Dab].[CC(C)(C)[C@H](N[*:1])C(=O)[*:2]].D.S.[dA]}$PEPTIDE1,PEPTIDE1,3:R3-12:R3|PEPTIDE1,PEPTIDE1,1:R1-14:R2$$$V2.0)	8	1	2	1
CC(C)[C@@H]1NC(=O)[C@H](Cc2ccc(O)cc2)NC(=O)[C@@H](C)NC(=O)[C@H](CO)NC(=O)[C@@H]2CC(=O)NCC[C@H](NC1=O)C(=O)N[C@@H](Cc1ccc(O)cc1)C(=O)N[C@@H](CCN)C(=O)N[C@@H](CN)C(=O)N[C@H](CCN)C(=O)N[C@@H](CCN)C(=O)N[C@@H](Cc1c[nH]c3ccccc13)C(=O)N[C@@H](CN)C(=O)N[C@@H](C(C)(C)C)C(=O)N2 [Example 31, cyclo(-Val-Dab-Tyr-Dab-Dap-^DDab-Dab-Trp-Dap-tBuGly-Asp-Ser-^DAla-Tyr-)] (cyclo(DS[dA]YV[Dab]Y[Dab][Dap][dDab][Dab]W[Dap][Tle]); lactam 1-6)	4	1	1	1
CC(C)C[C@@H]1NC(=O)[C@@H]2CCCN2C(=O)[C@H]2CCCN2C(=O)[C@H](CO)NC(=O)[C@@H]2NC(=O)[C@H](C3CCCCC3)NC(=O)[C@H](CCN)NC(=O)[C@H](Cc3c[nH]c4ccccc34)NC(=O)[C@H](CCN)NC(=O)[C@@H](CCN)NC(=O)[C@H](CCCN)NC(=O)[C@H](CCN)NC(=O)[C@H](C(C)(C)C)NC(=O)[C@H](NC1=O)C(C)(C)SSC2(C)C [Example 33, cyclo(-Leu-Pen-tBuGly-Dab-Orn-DDab-Dab-Trp-Dab-Chg-Pen-Ser-^DPro-Pro-)] (cyclo(L[dPen][Tle][Dab][Orn][dDab][Dab]W[Dab][Chg][dPen]S[dP]P); disulfide 2-11)	1	1	2	1
CC(C)[C@@H]1NC(=O)[C@@H]2CCCN2C(=O)[C@H]2CCCN2C(=O)[C@H](CO)NC(=O)[C@@H]2CCn3cc(nn3)C[C@H](NC1=O)C(=O)N[C@@H](Cc1ccc(O)cc1)C(=O)N[C@@H](CCN)C(=O)N[C@@H](CN)C(=O)N[C@H](CCN)C(=O)N[C@@H](CCN)C(=O)N[C@@H](Cc1c[nH]c3ccccc13)C(=O)N[C@@H](CCN)C(=O)N[C@@H](C(C)(C)C)C(=O)N2 [Example 34, cyclo(-Val-Pra-Tyr-Dab-Dap-^DDab-Dab-Trp-Dab-tBuGly-Abu(4N3)-Ser-^DPro-Pro-)] (cyclo(V[Pra]Y[Dab][Dap][dDab][Dab]W[Dab][Tle][Aha]S[dP]P); triazole 2-11)	4	4	2	0
CC(C)C[C@@H]1NC(=O)[C@H](CCCNC(=N)N)NC(=O)[C@H]2CCCN2C(=O)[C@H](C(C)C)NC(=O)[C@H]([C@@H](C)O)NC(=O)[C@H](C(C)C)NC(=O)[C@@H]2CSSC[C@H](NC(=O)[C@H](Cc3ccc(O)cc3)NC(=O)[C@H]([C@@H](C)O)NC1=O)C(=O)N[C@@H](CCN)C(=O)N[C@@H](CCN)C(=O)N[C@@H](CCN)C(=O)N[C@@H](Cc1c[nH]c3ccccc13)C(=O)N2 [Example 35, cyclo(-Leu-Thr-Tyr-Cys-Dab-Dab-Dab-Trp-Cys-Val-Thr-Val-^DPro-Arg-)] (HELM PEPTIDE1{C.[Dab].[Dab].[Dab].W.C.V.T.V.[dP].R.L.T.Y}$PEPTIDE1,PEPTIDE1,1:R3-6:R3|PEPTIDE1,PEPTIDE1,1:R1-14:R2$$$V2.0)	1	2	2	4
CC(C)C[C@@H]1NC(=O)[C@H](CCCNC(=N)N)NC(=O)[C@H]2CCCN2C(=O)[C@H](C(C)C)NC(=O)[C@H]([C@@H](C)O)NC(=O)[C@H](C(C)C)NC(=O)[C@@H]2CSSC[C@H](NC(=O)[C@H](Cc3ccc(O)cc3)NC(=O)[C@H]([C@@H](C)O)NC1=O)C(=O)N[C@@H](CCN)C(=O)N[C@H](CCN)C(=O)N[C@@H](CCN)C(=O)N[C@@H](Cc1c[nH]c3ccccc13)C(=O)N2 [Example 36, cyclo(-Leu-Thr-Tyr-Cys-Dab-^DDab-Dab-Trp-Cys-Val-Thr-Val-^DPro-Arg-)] (HELM PEPTIDE1{C.[Dab].[NCC[C@@H](N[*:1])C(=O)[*:2]].[Dab].W.C.V.T.V.[dP].R.L.T.Y}$PEPTIDE1,PEPTIDE1,1:R3-6:R3|PEPTIDE1,PEPTIDE1,1:R1-14:R2$$$V2.0)	2	4	2	2
